Legend:
[1] = target: T1, D(4) dopamine receptor (Homo sapiens, UniProt P21917); test: DRUGMATRIX: Dopamine D4.2 radioligand binding (ligand: [3H] Spiperone); type: cell membranes, CHO-K1, Membrane; details: cho-k1; Not Active = under 50% inhibition at 10 µM
T1 sequence (P21917 whole entry): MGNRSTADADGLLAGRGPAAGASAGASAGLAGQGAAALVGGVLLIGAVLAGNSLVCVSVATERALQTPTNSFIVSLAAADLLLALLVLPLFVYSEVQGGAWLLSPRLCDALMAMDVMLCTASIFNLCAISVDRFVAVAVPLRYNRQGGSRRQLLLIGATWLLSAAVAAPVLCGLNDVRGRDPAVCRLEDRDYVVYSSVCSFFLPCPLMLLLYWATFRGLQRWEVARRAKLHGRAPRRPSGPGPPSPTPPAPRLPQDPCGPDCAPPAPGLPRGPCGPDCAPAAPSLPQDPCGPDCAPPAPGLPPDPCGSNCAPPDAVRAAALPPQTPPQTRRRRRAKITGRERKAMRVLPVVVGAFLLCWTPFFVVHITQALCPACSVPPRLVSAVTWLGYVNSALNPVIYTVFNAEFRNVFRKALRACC

[2] = target: Matrix metalloproteinase-9 (Homo sapiens, UniProt P14780); type: cell-based;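 note: inhibition of isolated MMP-9 enzyme activity toward a synthetic peptide substrate, from the DrugMatrix protease screening panel; in other assays of this panel Not Active means under 50% inhibition at 10 µM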
Chain of Matrix metalloproteinase-9 (P14780 whole entry): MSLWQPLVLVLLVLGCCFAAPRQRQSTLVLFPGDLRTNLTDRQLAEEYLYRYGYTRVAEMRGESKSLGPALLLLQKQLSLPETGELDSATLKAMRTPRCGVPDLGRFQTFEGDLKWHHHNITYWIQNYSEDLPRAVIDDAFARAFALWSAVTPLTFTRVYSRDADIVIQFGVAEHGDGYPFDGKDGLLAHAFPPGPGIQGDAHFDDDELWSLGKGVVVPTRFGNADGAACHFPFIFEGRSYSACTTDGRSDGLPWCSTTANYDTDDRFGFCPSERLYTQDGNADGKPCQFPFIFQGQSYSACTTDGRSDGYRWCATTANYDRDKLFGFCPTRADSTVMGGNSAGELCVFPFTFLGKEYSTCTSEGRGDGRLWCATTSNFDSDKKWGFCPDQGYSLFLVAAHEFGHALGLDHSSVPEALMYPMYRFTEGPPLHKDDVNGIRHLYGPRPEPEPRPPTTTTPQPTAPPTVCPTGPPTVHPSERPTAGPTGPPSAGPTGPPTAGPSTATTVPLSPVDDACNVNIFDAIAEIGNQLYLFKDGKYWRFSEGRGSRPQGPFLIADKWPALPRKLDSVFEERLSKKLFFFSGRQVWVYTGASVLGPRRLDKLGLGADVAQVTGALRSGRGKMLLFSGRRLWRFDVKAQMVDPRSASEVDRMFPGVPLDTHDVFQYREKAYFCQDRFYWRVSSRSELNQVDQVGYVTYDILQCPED

[3] = target: T2, Cathepsin G (Homo sapiens, UniProt P08311); type: tissue-based; details: neutrophil;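 note: inhibition of Cathepsin G enzyme activity, tested on an AMC-conjugated peptide substrate; in other assays of this panel Not Active means under 50% inhibition at 10 µM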
T2 sequence (P08311 whole entry): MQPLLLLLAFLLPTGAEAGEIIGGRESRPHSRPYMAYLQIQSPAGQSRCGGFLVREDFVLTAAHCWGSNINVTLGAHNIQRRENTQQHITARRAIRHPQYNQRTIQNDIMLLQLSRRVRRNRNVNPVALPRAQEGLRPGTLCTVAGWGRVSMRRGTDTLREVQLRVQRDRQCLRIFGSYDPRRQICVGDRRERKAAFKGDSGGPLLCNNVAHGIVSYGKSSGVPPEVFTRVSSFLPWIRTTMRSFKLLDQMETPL

[4] = target: T3, Receptor-type tyrosine-protein phosphatase C (Homo sapiens, UniProt P08575); set-up: species or system Escherichia coli;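 note: inhibition of CD45 enzyme activity measured using DiFMUP as substrate; in other assays of this panel Not Active means under 50% inhibition at 10 µM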
T3 sequence (P08575 whole entry): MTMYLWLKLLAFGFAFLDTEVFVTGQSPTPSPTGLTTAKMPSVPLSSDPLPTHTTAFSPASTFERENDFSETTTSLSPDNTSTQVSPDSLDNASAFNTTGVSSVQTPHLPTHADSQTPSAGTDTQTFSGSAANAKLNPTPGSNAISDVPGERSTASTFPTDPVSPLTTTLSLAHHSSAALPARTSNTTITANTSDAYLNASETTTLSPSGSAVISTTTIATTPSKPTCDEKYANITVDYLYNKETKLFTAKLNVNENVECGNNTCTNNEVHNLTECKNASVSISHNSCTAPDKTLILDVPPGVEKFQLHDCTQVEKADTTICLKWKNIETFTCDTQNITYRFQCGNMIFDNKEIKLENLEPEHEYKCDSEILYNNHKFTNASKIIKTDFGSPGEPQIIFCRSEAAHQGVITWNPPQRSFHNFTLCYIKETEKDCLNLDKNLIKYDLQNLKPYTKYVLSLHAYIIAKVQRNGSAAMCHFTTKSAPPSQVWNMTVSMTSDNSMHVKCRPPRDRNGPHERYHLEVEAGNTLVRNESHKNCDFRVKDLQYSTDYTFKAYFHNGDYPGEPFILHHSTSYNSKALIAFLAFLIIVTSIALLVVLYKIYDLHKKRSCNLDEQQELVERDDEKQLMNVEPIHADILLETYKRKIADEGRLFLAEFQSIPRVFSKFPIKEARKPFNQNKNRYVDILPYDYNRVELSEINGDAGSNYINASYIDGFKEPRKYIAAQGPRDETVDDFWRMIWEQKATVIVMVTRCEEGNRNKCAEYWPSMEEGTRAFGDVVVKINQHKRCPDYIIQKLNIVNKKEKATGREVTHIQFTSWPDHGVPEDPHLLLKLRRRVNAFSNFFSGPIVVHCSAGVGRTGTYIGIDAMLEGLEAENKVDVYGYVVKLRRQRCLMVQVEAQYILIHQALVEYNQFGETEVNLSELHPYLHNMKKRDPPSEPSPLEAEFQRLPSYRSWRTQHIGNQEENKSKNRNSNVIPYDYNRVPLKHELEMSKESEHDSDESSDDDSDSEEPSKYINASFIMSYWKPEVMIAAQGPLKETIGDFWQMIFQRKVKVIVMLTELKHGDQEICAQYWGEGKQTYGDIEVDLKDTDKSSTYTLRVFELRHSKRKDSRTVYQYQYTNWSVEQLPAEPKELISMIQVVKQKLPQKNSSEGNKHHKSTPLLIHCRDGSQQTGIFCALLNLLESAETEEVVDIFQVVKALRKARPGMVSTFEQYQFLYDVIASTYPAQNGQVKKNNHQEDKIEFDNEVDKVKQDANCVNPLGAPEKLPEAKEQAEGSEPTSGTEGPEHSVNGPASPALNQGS

[5] = target: T4, Cholecystokinin receptor type A (Homo sapiens, UniProt P32238); type: cell membranes, Membrane; details: 1321-n1; note: in other assays of this panel Not Active means under 50% inhibition at 10 µM
T4 sequence (P32238 whole entry): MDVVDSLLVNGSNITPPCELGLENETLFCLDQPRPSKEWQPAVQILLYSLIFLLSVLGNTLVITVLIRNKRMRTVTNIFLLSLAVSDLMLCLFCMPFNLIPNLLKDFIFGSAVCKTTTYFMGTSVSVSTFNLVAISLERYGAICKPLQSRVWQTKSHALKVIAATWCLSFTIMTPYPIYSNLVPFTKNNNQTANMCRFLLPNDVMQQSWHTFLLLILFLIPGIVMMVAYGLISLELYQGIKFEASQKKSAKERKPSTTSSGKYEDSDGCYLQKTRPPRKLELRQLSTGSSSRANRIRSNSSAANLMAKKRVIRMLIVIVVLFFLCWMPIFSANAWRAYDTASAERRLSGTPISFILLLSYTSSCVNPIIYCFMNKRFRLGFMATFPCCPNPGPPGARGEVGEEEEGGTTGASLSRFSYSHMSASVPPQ

[6] = target: Histamine H2 receptor (Homo sapiens, UniProt P25021); type: cell membranes, CHO-K1, Membrane; details: cho-k1; note: in other assays of this panel Not Active means under 50% inhibition at 10 µM
Chain of Histamine H2 receptor (P25021 whole entry): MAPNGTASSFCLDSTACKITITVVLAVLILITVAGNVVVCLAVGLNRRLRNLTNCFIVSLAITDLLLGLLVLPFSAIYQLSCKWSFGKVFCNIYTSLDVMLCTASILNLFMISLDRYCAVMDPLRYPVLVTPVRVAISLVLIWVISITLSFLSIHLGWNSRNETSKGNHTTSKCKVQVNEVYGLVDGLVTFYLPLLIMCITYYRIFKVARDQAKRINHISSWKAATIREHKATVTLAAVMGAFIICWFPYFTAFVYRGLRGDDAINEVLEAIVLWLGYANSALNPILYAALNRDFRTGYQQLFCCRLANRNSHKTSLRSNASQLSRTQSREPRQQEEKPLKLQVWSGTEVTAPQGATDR

[7] = DRUGMATRIX: Potassium Channel [KATP] radioligand binding (ligand: [3H] Glyburide); type: cell membranes, Membrane; details: hit-t15; Not Active = under 50% inhibition at 10 µM

CN(N=O)C(=O)N[C@@H](C=O)[C@@H](O)[C@H](O)[C@H](O)CO [STREPTOZOCIN]
Not Active: IC50 [1] | IC50 [2] | IC50 [3] | IC50 [4] | IC50 [5] | IC50 [6] | IC50 [7] | Ki [7]

CC(C)(C)NCC(O)c1cc(O)cc(O)c1 (stereo not drawn) [TERBUTALINE]
Not Active: IC50 [1] | IC50 [2] | IC50 [3] | IC50 [4] | IC50 [5] | IC50 [6] | IC50 [7] | Ki [7]

O=C1c2c(O)ccc(O)c2C(=O)c2c(NCCNCCO)ccc(NCCNCCO)c21 [MITOXANTRONE]
Not Active: IC50 [1] | IC50 [2] | IC50 [3] | IC50 [4] | IC50 [5] | IC50 [6] | IC50 [7] | Ki [7]

Nc1ccc(S(N)(=O)=O)cc1 [SULFANILAMIDE]
Not Active: IC50 [1] | IC50 [2] | IC50 [3] | IC50 [4] | IC50 [5] | IC50 [6] | IC50 [7] | Ki [7]

CC[C@H]1OC(=O)[C@H](C)[C@@H](O[C@H]2C[C@@](C)(OC)[C@@H](O)[C@H](C)O2)[C@H](C)[C@@H](O[C@@H]2O[C@H](C)C[C@H](N(C)C)[C@H]2O)[C@](C)(O)C[C@@H](C)/C(=N\OCOCCOC)[C@H](C)[C@@H](O)[C@]1(C)O [ROXITHROMYCIN]
Not Active: IC50 [1] | IC50 [2] | IC50 [3] | IC50 [4] | IC50 [5] | IC50 [6] | IC50 [7] | Ki [7]

COC(=O)c1ccc(O)cc1 [METHYLPARABEN]
Not Active: IC50 [1] | IC50 [2] | IC50 [3] | IC50 [4] | IC50 [5] | IC50 [6] | IC50 [7] | Ki [7]

NC(CO)(CO)CO [TROMETHAMINE]
Not Active: IC50 [1] | IC50 [2] | IC50 [3] | IC50 [4] | IC50 [5] | IC50 [6] | IC50 [7] | Ki [7]

CCOC(=O)[C@H](CCc1ccccc1)N[C@@H](C)C(=O)N1[C@H](C(=O)O)C[C@@H]2CCC[C@@H]21
Not Active: IC50 [1] | IC50 [2] | IC50 [3] | IC50 [4] | IC50 [5] | IC50 [6] | IC50 [7] | Ki [7]

COc1cc(C(=O)NC2CCCNC2)cc(OC)c1OC (stereo not drawn) [TROXIPIDE]
Not Active: IC50 [1] | IC50 [2] | IC50 [3] | IC50 [4] | IC50 [5] | IC50 [6] | IC50 [7] | Ki [7]

CCC[C@@H]1C[C@@H](C(=O)N[C@@H]([C@H]2O[C@H](SC)[C@H](O)[C@@H](O)[C@H]2O)[C@@H](C)O)N(C)C1 [LINCOMYCIN]
Not Active: IC50 [1] | IC50 [2] | IC50 [3] | IC50 [4] | IC50 [5] | IC50 [6] | IC50 [7] | Ki [7]

NNC(=O)c1ccncc1 [ISONIAZID]
Not Active: IC50 [1] | IC50 [2] | IC50 [3] | IC50 [4] | IC50 [5] | IC50 [6] | IC50 [7] | Ki [7]

COC(=O)C1=C(C)NC(C)=C(C(=O)OC)C1c1ccccc1[N+](=O)[O-] [NIFEDIPINE]
Not Active: IC50 [1] | IC50 [2] | IC50 [3] | IC50 [4] | IC50 [5] | IC50 [6] | IC50 [7] | Ki [7]

Cc1ncc([N+](=O)[O-])n1CC(C)O (stereo not drawn) [SECNIDAZOLE]
Not Active: IC50 [1] | IC50 [2] | IC50 [3] | IC50 [4] | IC50 [5] | IC50 [6] | IC50 [7] | Ki [7]

COS(C)(=O)=O [METHANESULFONIC ACID METHYL ESTER]
Not Active: IC50 [1] | IC50 [2] | IC50 [3] | IC50 [4] | IC50 [5] | IC50 [6] | IC50 [7] | Ki [7]

CC(C)(C)NCC(O)c1ccc(O)c(CO)c1 (stereo not drawn) [ALBUTEROL]
Not Active: IC50 [1] | IC50 [2] | IC50 [3] | IC50 [4] | IC50 [5] | IC50 [6] | IC50 [7] | Ki [7]

Cc1ccc(C(=O)C(C)CN2CCCCC2)cc1 (stereo not drawn) [TOLPERISONE]
Not Active: IC50 [1] | IC50 [2] | IC50 [3] | IC50 [4] | IC50 [5] | IC50 [6] | IC50 [7] | Ki [7]

From ChEMBL document CHEMBL1909046, “DrugMatrix in vitro pharmacology data”
